Experiments:
[1] = test system: Chronic Liver Damage (thioacetamide); assay: Therapeutic effect on chronic liver damage (thioacetamide model), BSP test; format: in vivo, rats (Sprague Dawley strain); conditions: 12 times TAA 100 mg/kg, then diet + 0.2% compound
Description: In the tests of this Example, TAA was repeatedly administered to animals to prepare test animals suffering from somewhat chronic liver damages, and then the present compounds were administered thereto to know whether or not the compounds were effective against chronic hepatitis.
The degree of the liver damage and the therapeutic effects of the compounds were evaluated according to BSP test. The BSP test is a method in which BSP (sulfobromophthalein sodium), a dye known to be quickly metabolized in and excreted from the liver, is intravenously injected into animals and, after a definite period of time, the blood is taken out to measure the amount of BSP remaining in the plasma. In case the animals are suffering from the liver damage, the dye will remain, according to the degree of the damage, at the stage where a major portion of BSP is metabolized and excreted in the case of normal animals.
Five groups of rats (Sprague Dawley strain) were treated as follows:
Group A: The rats were orally administered with 100 mg/kg of thioacetamide,at 3 days intervals for 36 days (12 times of the administration), then were submitted for 10 days to a normal diet.
Group B: The rats were orally administered with 100 mg/kg of thioacetamide at 3 days intervals for 36 days (12 times of the administration), then were submitted for 10 days to the normal diet + 0.2% of compound 4.
Group C: The rats were orally administered with 100 mg/kg of thioacetamide at 3 days intervals for 36 days (12 times of the administration) then were submitted for 10 days to the normal diet + 0.2% of compound 2.
Group D: The rats were orally administered with 100 mg/kg of thioacetamide at 3 days intervals for 36 days (12 times of the administration) then were submitted for 10 days to the normal diet + 0.2% of anethol trithion.
Group E: The rats were submitted to the normal diet as the control.
Five rats were sacrified from each group at appropriate intervals for BSP (sulfobromophthalein) test, the results of which were shown as amounts (mg) of BSP remaining in 1 dl of plasma.

[2] = test system: acute liver damage associated with discrete lobular necrosis (D-galactosamine); assay: Protective effect on acute hepatitis with mesenchymal reaction and discrete lobular necrosis (D-galactosamine model); format: in vivo, male rat (SD strain); conditions: 100 mg/kg oral 6 h before D-galactosamine
Description: D-Galactosamine is a compound which induces a discrete lobular necrosis associated with mesenchymal reaction similar to the change observed in human viral hepatitis, so that it is frequently used in producing a model for viral hepatitis.
The compound of this invention or anethol trithion was administered orally to the male rat (SD strain) at the dose of 100 mg/kg. Six hours after it, D-galacetosamine was intraperitoneally administered at the dose of 600 mg/kg. Four hours after it, an additional 300 mg/kg was administered intraperitoneally. Eight hours after it, the animals were sacrificed to collect the blood samples. P-GPT activity and triglyceride in the liver were measured to evaluate the effect of the compound of this invention.

[3] = Effect on concentration of ethyl alcohol in the blood; format: in vivo, mice; conditions: 250 mg/kg oral 6 h before ethyl alcohol 1,000 mg/kg
Description: The test compounds are dissolved or suspended in olive oil and administered orally at the dose of 250 mg/kg to the mice. After 6 hours, 1,000 mg/kg of ethyl alcohol was given orally. Blood was taken in a capillary from caudal vein at the time indicated in the results. The plasma was obtained by centrifugation. The concentration of ethyl alcohol in the plasma was measured by FID type gas liquid chromatography. Five mice were used for each group.

[4] = test system: Acute Liver Damage associated with Centrilobular Necrosis (carbon tetrachloride); assay: Protective effect on acute liver damage associated with centrilobular necrosis (carbon tetrachloride model); format: in vivo, mice (four-week-old male, dd strain); conditions: 250 mg/kg oral 6 h before CCl4, average of 5 to 6 mice; for p-GPT (plasma glutamic-pyruvic transaminase activity): 24 h after CCl4, values over 1,000 regarded as 1,000; for Liver Damage Index: 0 normal, 2 slightly recognized, 4 clearly observable damage, 6 heavy damage
Source text: Carbon tetrachloride (CCl4) administration induces centrilobular necrosis of the liver associated with loss of diphosphopyridine nucleotide, hepatic glycogen, coenzyme A and increase in neutral fat. Release of several enzymes from the hepatocytes, and increases of enzyme activities in the plasma are recognized as the result of the damage of the liver. A suitable means for evaluating the degree of damage induced by CCl4 or the degree of protection afforded by drugs is to study the plasma glutamic-pyruvic transaminase (p-GPT) activity.
Method: The test compounds were dissolved or suspended in olive oil and administered orally at the dose of 250 mg/kg to the mice (Four-week-old male mice-dd strain). After 6 hours, CCl4 was administered orally (0.05 ml/kg as olive oil solution). Animals were killed 24 hours after CCl4 administration, and the liver was grossly observed. The plasma was obtained by centrifugation. Activities of p-GPT were determined by the method of Reitman and Frankel and expressed in Karmen units.
Score for liver damage was as follows: […]
4 Clearly observable damage
Each figure indicates average of 5 to 6 mice. Values of p-GPT over 1,000 Karmen unit regarded as 1,000 for calculation of average for convenience.

in vivo = conditions: mouse, po
[5] = test system: bile flow and biliary salt; assay: Cholagogic action: bile flow and excretion of biliary salt; format: in vivo, male rat (4 week-aged, SD-JCL strain); conditions: 200 mg/kg oral; for bile flow / excretion of biliary salt: before treatment = 100
Description: The male rat (4 week-aged, SD-JCL strain) was anesthetized with sodium pentobarbital (37.5 mg/kg, intraperitoneal injection). The abdominal cavity was opened through a midline incision. The common bile duct was catheterized with polyethylene tube o.d. 0.8 mm. The catheter was brought to the outside through the abdominal incision wound prior to closing. Bile was collected from the catheter continuously with time intervals of one hour. The quantity of bile produced in one hour was determined by weighing and that of biliary salt was determined by enzymatic method (Ikagaku Jikkenho Koza 1B, Biological Constituents II, edited by Tamio YAMAKAWA). The amount of biliary salts was represented as cholic acid equivalent.
In the representation of the results, the quantities of bile and biliary salts produced in one hour prior to the administration of drug were taken as 100. The compound of this invention was orally administered at the dose of 200 mg/kg. As reference anethol trithion was used.

[6] = test system: fatty liver (carbon tetrachloride); assay: Therapeutic effect on fatty liver (carbon tetrachloride model); format: in vivo, male rat (35 week-old, SD strain)
Description: Carbon tetrachloride also induces fatty liver, but the picture of disease differs from the case of ethionine-induced fatty liver. Carbon tetrachloride is generally considered to damage microsome and thereby to inhibit protein synthesis and induce fatty liver.
Carbon tetrachloride was subscutaneously administered to 35 week-old male rat (SD strain) for 4 days at the dose of 1 ml/kg. The treated animals were left for 3 days after the last administration to maximize the manifestation of fatty liver.
Administration of the compounds of this invention was commenced on the fourth day after the administration of carbon tetrachloride was completed. It was orally given everyday for 10 days at the dose of 50 or 250 mg/kg. On the 11th day, the animals were sacrificed. The therapeutic effect was evaluated by determining the content of lipid in the liver (triglyceride and total lipid) and examining the histopathological changes. Triglyceride and total lipid were determined colorimetrically by chromotropic acid method and Bragdon's oxidation method, respectively.
Indices for the histopathological change is as follows.

fatty liver (ethionine) = assay: Effect on fatty liver (ethionine model); format: in vivo, male mice (4 week-old, dd-strain); conditions: diet plus 0.2% ethionine and 0.2% compound, 5 days
Source text: There are known many factors inducing fatty liver. But, the fatty liver is grouped into a couple of patterns from the mechanism of lipid accumulation or metabolism of lipoprotein in the liver. Ethionine is a typical compound inducing fatty liver. It inhibits RNA and protein syntheses and destructs polysome of the liver cell. Fatty liver is induced by the inhibition of protein synthesis and the disturbance of lipoprotein secretion.
Usually, fatty liver is closely related to the accumulation of triglyceride in the liver. In the present example, the degree of fatty liver and protective or therapeutic effect against the fatty liver was evaluted by measurement of triglyceride content in the liver.
The animals used in the test were 4 week-old male mice (dd-strain).
The mice were submitted for 5 days to a normal diet (control), to the normal diet plus 0.2% ethionine (positive control), to the normal diet plus 0.2% ethionine and 0.2% of the compound of this invention, or to the normal diet plus 0.2% ethionine and 0.2% methionine which was the referential diet. At the end of the period of 5 days, content of triglyceride in the liver was studied colorimetrically by chromotropic acid method and the result was represented as triolein content (mg/g-liver).

[7] = 50 mg/kg oral everyday for 10 days
[8] = 250 mg/kg oral everyday for 10 days

CCOC(=O)C(C(=O)OCC)=C1SCCS1 [Compound 2, Diethyl 1,3-dithiolan-2-ylidene malonate]
Concentration of BSP in plasma ([1]; 2 Days): 9.8 ± 3.1 mg/dL | Concentration of BSP in plasma ([1]; 5 Days): 4.7 ± 0.8 mg/dL | Concentration of BSP in plasma ([1]; 10 Days): 0.8 ± 0.2 mg/dL | Triglyceride in liver [2]: 7.2 ± 1.5 mg/g | p-GPT [2]: 68±32 Karmen unit | Concentration of Ethyl alcohol in Plasma ([3]; 0 min): 8±3 ppm | Concentration of Ethyl alcohol in Plasma ([3]; 5 min): 712±75 ppm | Concentration of Ethyl alcohol in Plasma ([3]; 15 min): 65±98 ppm | Concentration of Ethyl alcohol in Plasma ([3]; 30 min): 422±100 ppm | Concentration of Ethyl alcohol in Plasma ([3]; 60 min): 15±8 ppm | p-GPT (plasma glutamic-pyruvic transaminase activity) [4]: 47 Karmen units | Liver Damage Index [4]: 0.8 | LD50 (in vivo): 1110 mg/kg | bile flow ([5]; 1 hour after treatment): 108±3.8 | excretion of biliary salt ([5]; 1 hour after treatment): 108±18 | bile flow ([5]; 2 hours after treatment): 116±6.2 | excretion of biliary salt ([5]; 2 hours after treatment): 120±12 | bile flow ([5]; 3 hours after treatment): 109±8.3 | excretion of biliary salt ([5]; 3 hours after treatment): 133±18 | bile flow ([5]; 4 hours after treatment): 108±8.5 | excretion of biliary salt ([5]; 4 hours after treatment): 120±21 | bile flow ([5]; 5 hours after treatment): 98±3.8 | excretion of biliary salt ([5]; 5 hours after treatment): 86±8.9 | Amount of total biliary salts excreted for 5 hours relative to control ([5]; versus control): 1.63 times | Quantity of total excreted bile for 5 hours relative to control ([5]; versus control): 1.15 times

CCOC(=O)C(C(=O)OC(C)C)=C1SCCS1 [Compound 21, Ethyl isopropyl 1,3-dithiolan-2-ylidene malonate]
Triglyceride in liver [2]: 6.8 ± 1.2 mg/g | p-GPT [2]: 47±21 Karmen unit | Total lipid [6, 7]: 97.8 ± 10.3 mg/g-liver | Triglyceride [6, 7]: 40.6 ± 6.8 mg/g-liver | Total lipid [6, 8]: 70.2 ± 8.3 mg/g-liver | Triglyceride [6, 8]: 24.8 ± 3.2 mg/g-liver | p-GPT (plasma glutamic-pyruvic transaminase activity) [4]: 64 Karmen units | Liver Damage Index [4]: 0.6 | LD50 (in vivo): 2230 mg/kg

CCOC(=O)C(C(=O)OC(C)CC)=C1SCCS1 (stereo not drawn) [Compound 22]
Triglyceride (content in the liver, as triolein) (fatty liver (ethionine)): 11.3 ± 0.96 mg/g | p-GPT (plasma glutamic-pyruvic transaminase activity) [4]: 67 Karmen units | Liver Damage Index [4]: 0.4

CCOC(=O)C(C(=O)SCC)=C1SCCS1 [Compound 26]
Concentration of Ethyl alcohol in Plasma ([3]; 0 min): 10±3 ppm | Concentration of Ethyl alcohol in Plasma ([3]; 5 min): 690±102 ppm | Concentration of Ethyl alcohol in Plasma ([3]; 15 min): 694±86 ppm | Concentration of Ethyl alcohol in Plasma ([3]; 30 min): 432±96 ppm | Concentration of Ethyl alcohol in Plasma ([3]; 60 min): 12±8 ppm | p-GPT (plasma glutamic-pyruvic transaminase activity) [4]: 62 Karmen units | Liver Damage Index [4]: 0.6

CCOC(=O)C(C(=O)OCC)=C1SCC[S+]1[O-] (stereo not drawn) [Compound 30]
Triglyceride (content in the liver, as triolein) (fatty liver (ethionine)): 12.6 ± 2.3 mg/g | p-GPT (plasma glutamic-pyruvic transaminase activity) [4]: 156 Karmen units | Liver Damage Index [4]: 0.8

CC(C)OC(=O)C(C(=O)OC(C)C)=C1SCC[S+]1[O-] (stereo not drawn) [Compound 31, 2-(Diisopropoxycarbonyl)methyliden-1,3-dithiolan-1-oxide]
Concentration of Ethyl alcohol in Plasma ([3]; 0 min): 12±8 ppm | Concentration of Ethyl alcohol in Plasma ([3]; 5 min): 720±145 ppm | Concentration of Ethyl alcohol in Plasma ([3]; 15 min): 583±122 ppm | Concentration of Ethyl alcohol in Plasma ([3]; 30 min): 343±13 ppm | Concentration of Ethyl alcohol in Plasma ([3]; 60 min): 5±2 ppm | p-GPT (plasma glutamic-pyruvic transaminase activity) [4]: 121 Karmen units | Liver Damage Index [4]: 0.8 | LD50 (in vivo): > 6000 mg/kg

CSCC[C@H](N)C(=O)O [Methionine, methionine, reference compound]
Triglyceride (content in the liver, as triolein) (fatty liver (ethionine)): 13.2 ± 2.1 mg/g | Total lipid [6, 8]: 168.6 ± 21.6 mg/g-liver | Triglyceride [6, 8]: 58.2 ± 9.6 mg/g-liver | Degree of fatty liver (histopathological examination) ([6]; 250 mg/kg oral, 10 days, one symbol per animal): + ± and ++ ++ ++ ± | therapeutic effect on fatty liver ([6]; carbon tetrachloride, in words): hardly exhibited a therapeutic effect

— US4080467A, “Pharmaceutical compositions comprising 1,3-dithiolan-2-ylidene malonate derivatives” (Nihon Nohyaku Co., Ltd., priority 1976, dated 1978)
